Measured values reported in patent US10561676B2, “Method for treating cancer using dual antagonists of CXCR1 and CXCR2” (Syntrix Biosystems, Inc., priority 2018, dated 2020).

Assays:
[1] = target: T1, CXCR2 (Homo sapiens, UniProt P25025); test: Wash-resistant inhibition of CXCL8-mediated calcium flux, CXCR2-transfected RBL cells; type: cell-based; settings: 30 min incubation at 0.4, 2, 10 μM, then washout
T1 construct: expressed in transfected cells
T1 sequence (P25025 1-360): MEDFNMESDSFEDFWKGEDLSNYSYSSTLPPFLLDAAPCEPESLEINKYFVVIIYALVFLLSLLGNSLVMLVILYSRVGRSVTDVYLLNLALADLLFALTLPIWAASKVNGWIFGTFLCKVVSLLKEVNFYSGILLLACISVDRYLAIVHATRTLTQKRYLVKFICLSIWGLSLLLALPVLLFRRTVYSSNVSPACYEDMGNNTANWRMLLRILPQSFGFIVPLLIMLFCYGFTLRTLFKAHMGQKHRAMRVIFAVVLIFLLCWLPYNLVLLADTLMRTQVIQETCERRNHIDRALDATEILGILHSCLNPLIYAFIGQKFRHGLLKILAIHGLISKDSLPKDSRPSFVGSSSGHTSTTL
Experimental: In order to test this hypothesis, RBL cells (10^7 cells/ml) stably transfected with either CXCR1 or CXCR2 were (1) incubated with SX-682 at various concentrations for 30 minutes at 37° C., (2) washed and resuspended in assay buffer (RPMI/2% serum) at room temperature, and (3) assayed for CXCL8-mediated calcium response at time points up to 12 h after inhibitor washout. The concentrations of SX-682 tested were 0 (positive control), 0 (negative control), 0.4, 2, and 10 μM. At 30 minutes before each time point, a 56.25 μl aliquot of the cells were removed and loaded for 30 minutes at room temperature in the dark with FLIPR™ 3 reagent (262.5 μl per tube). Following FLIPR™ 3 incubation, cells were assayed for CXCL8 mediated intracellular calcium release as described in Pharmacology Example 1.

[2] = test system: Sprague-Dawley rats; test: Ozone rat model of pulmonary inflammation (neutrophil influx into BALF); type: in vivo
Experimental: SX-682 was assayed in an in vivo rat model of pulmonary inflammation. Activity in this model of pulmonary inflammation provides evidence that supports the use of SX-682 in the treatment of a number of pulmonary inflammatory diseases, including chronic obstructive pulmonary disease (COPD) and bronchopulmonary dysplasia (BPD). In this experiment, Sprague-Dawley rats (n=4 per cohort) were dosed intravenously only once at t=0 with either vehicle control (dimethylformamide/PEG400/saline, 40:40:20), positive inhibitor control (SX-576, 1 mg/kg) or the test compound (SX-682, 1 mg/kg). The rats were then placed in air (negative exposure group; vehicle control only) or 1 ppm ozone (positive exposure group; vehicle control, positive inhibitor control SX-576, and test compound SX-682) for 4 hours. The rats were then sacrificed at t=24 hours, and the bronchoalveolar lavage fluid (BALF) was collected. The cells were spun down, stained with Wright-Giemsa and counted. In the negative exposure group, no neutrophils were observed when stained. In the ozone exposed rats treated with vehicle however, there was a brisk influx of neutrophils of approximately 14,000 per mL of BALF (FIG. 5).

[3] = Stability in human liver microsomes (NADPH-dependent); type: in vitro ADME
Experimental: The compounds were incubated in duplicate with human liver microsomes at 37° C. The reaction contained microsomal protein in 100 mM potassium phosphate, 2 mM NADPH, 3 mM MgCl2, pH 7.4. A control was run for each compound omitting NADPH to detect NADPH-independent degradation. An aliquot was removed from each experimental and control reaction at 0, 10, 20, 30, and 60 minutes and mixed with an equal volume of ice-cold Stop Solution (0.3% acetic acid in acetonitrile containing haloperidol, diclofenac, or other internal standard). Stopped reactions were incubated for at least ten minutes at −20° C., and an additional volume of water was added. The samples were centrifuged to remove precipitated protein, and the supernatants were analyzed by LCMS/MS to quantitate the remaining compound. Data were converted to percent remaining by dividing by the time zero concentration value. Data were fit to a first-order decay model to determine half-life. Intrinsic clearance was calculated from the half-life and the protein concentrations: CLint=ln(2)/(t½[microsomal protein]). […] More surprising is that eliminating the ring nitrogen in SX-517 yielded a half-life even larger than that of SX-682. The results as a whole led to no SAR predictive of the surprising stability of SX-682.

[4] = test system: LLC syngeneic mouse model of lung cancer; test: LLC syngeneic mouse model of lung cancer; type: in vivo
Experimental: The Lewis lung carcinoma (LLC) mouse model (Kellar, 2015, Biomed Res Int, 2015:621324, herein incorporated by reference) was used to evaluate the effect of SX-682 alone and in combination with anti-PD-1 antibody. LLC mouse […] cells were cultured, then mice were injected with 0.5×10^6 LLC cells on day 0, and on day 18 treatment was initiated. Mice were treated with vehicle (control), SX-682 alone (50 mg/kg twice daily, oral), anti-PD-1 alone (100 μg twice weekly, i.p.), or SX-682 in combination with anti-PD-1 (N=5 per cohort). SX-682 was used as a spray dried dispersion (Formulation Example 1), and was administered to mice via oral gavage as a suspension in 0.5% aq. methylcellulose.

[5] = test system: Ptenpc−/−p53pc−/−Smad4pc−/− mice; test: Ptenpc−/−p53pc−/−Smad4pc−/− mouse model of castration resistant prostate cancer; type: in vivo; settings: 4-6 weeks
Experimental: The genetically engineered Ptenpc−/−p53pc−/−Smad4pc−/− mouse is a prostate-specific PB promoter-driven (PB-Cre4) conditional triple knockout model (i.e., prostate-specific deletion of all three tumor suppressors, Pten, p53 and Smad4 occurs in the ‘prostate cancer’ or ‘pc’). […] SX-682 was used as a spray dried dispersion (Formulation Example 1), and was administered to mice via oral gavage as a suspension in 0.5% aq. methylcellulose. Treatment was continued for 4-6 weeks and prostate weights measured to determine tumor burden. […] Mean+SE.

[6] = test system: TRIA mouse model of melanoma; test: TRIA mouse model of melanoma
Experimental: Treatment regimens were started following tumor manifestation. SX-682 was given orally via medicated feed, at an approximate dose of 10 mg/day/mouse. CP was administered once weekly via intraperitoneal injection at a dose of 50 mg/kg.

For `O=C(Nc1ccc(F)cc1)c1cnc(SCc2cc(OC(F)(F)F)ccc2B(O)O)nc1` [SX-682, 2-(2-boronic acid-5-trifluoromethoxy-benzylsulfanyl)-pyrimidine-5-carboxylic acid (4-fluoro-phenyl)-amide], the “time inhibition of calcium flux is sustained after washout” value [1] was “at least 12 hours”, the “influx of neutrophils into the lungs (BALF) vs vehicle” value ([2]; 1 mg/kg i.v. once, 1 ppm ozone 4 hours, BALF at 24 hours) was “significantly decreased the influx of neutrophils” and the “time inhibition of neutrophil influx into BALF is sustained” value ([2]; single dose of 1 mg/kg i.v.) was 24 h. The “microsomal half-life larger than SX-671 or SX-576” value [3] was 6 fold, the microsomal CLint ([3]; pH 7.4, 37° C., NADPH-dependent, read-out: CLint, microsomal intrinsic clearance) was 2.1 µL/min/mg and the “tumor growth, SX-682 monotherapy” value ([4]; 50 mg/kg twice daily, oral) was “significantly slowed tumor growth”. For the same molecule, the “tumor growth, SX-682 in combination with anti-PD-1” value ([4]; SX-682 50 mg/kg twice daily oral + anti-PD-1 100 μg twice weekly i.p.) was “significantly better than either therapy alone”, the “survival, SX-682 in combination with anti-PD-1” value ([4]; vs vehicle or anti-PD-1 alone, up to 66 days) was “significantly enhanced survival” and the “prostate weight (tumor burden), SX-682 alone” value ([5]; 50 mg/kg b.i.d. oral gavage) was “inhibited prostate cancer”. For the same molecule, the “prostate weight (tumor burden), SX-682 plus ICB” value ([5]; SX-682 50 mg/kg b.i.d. oral + anti-PD1 and anti-CTLA4 200 μg each 3×/week) was “significantly better than control or either treatment alone”, the “tumor growth, SX-682 alone” value ([6]; 10 mg/day/mouse oral feed) was “significantly slowed tumor growth” and the “complete remission (zero tumor volume), SX-682 combination with CP” value ([6]; SX-682 10 mg/day/mouse oral feed + CP 50 mg/kg weekly i.p.) was 5 of 11.
